In ChEMBL document CHEMBL1156754, “Human P2Y(14) receptor agonists: truncation of the hexose moiety of uridine-5'-diphosphoglucose and its replacement with alkyl and aryl groups” (J Med Chem, 2010):
Active and inactive are the calls of the source. The calls are words filed in the database; no cut-off is given here.

How the values were obtained:
P2Y purinoceptor 6 [1] = target: T1, P2Y purinoceptor 6 (Homo sapiens, UniProt Q15077); experiment: Agonist activity at human P2Y6 receptor expressed in human 1321N1 cells coexpressing phospholipase C-activating Gq protein assessed as [3H]inositol phosphate production; format: functional, cell-based
P2Y purinoceptor 14 = target: T2, P2Y purinoceptor 14 (Homo sapiens, UniProt Q15391); experiment: Agonist activity at human P2Y14 receptor expressed in HEK293 cells coexpressing phospholipase C-activating Gi protein cells assessed as inhibition of forskolin induced [3H]cAMP production; format: functional, cell-based
T2 sequence (Q15391 whole entry): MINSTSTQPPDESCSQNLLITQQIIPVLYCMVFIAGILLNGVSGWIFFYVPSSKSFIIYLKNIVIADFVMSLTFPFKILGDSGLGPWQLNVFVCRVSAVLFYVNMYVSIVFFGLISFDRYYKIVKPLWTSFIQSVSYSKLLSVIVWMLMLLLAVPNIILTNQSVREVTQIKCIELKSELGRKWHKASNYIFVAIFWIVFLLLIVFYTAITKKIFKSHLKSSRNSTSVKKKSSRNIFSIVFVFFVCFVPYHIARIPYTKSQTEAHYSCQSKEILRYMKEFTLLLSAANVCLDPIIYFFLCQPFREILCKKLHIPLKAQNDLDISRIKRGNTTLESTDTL

[2] = target: T3, P2Y purinoceptor 14 (Homo sapiens) (UniProt Q15391); experiment: Agonist activity at human P2Y14 receptor expressed in HEK293 cells coexpressing phospholipase C-activating Gi protein cells assessed as inhibition of forskolin induced [3H]cAMP production at 10 uM; format: functional, cell-based
T3 sequence (whole entry): T2 sequence (Q15391 whole entry)

P2Y purinoceptor 6 [3] = target: T1, P2Y purinoceptor 6; experiment: Agonist activity at human P2Y6 receptor expressed in human 1321N1 cells coexpressing phospholipase C-activating Gq protein assessed as [3H]inositol phosphate production at 10 uM; format: functional, cell-based
Homo sapiens = organism: Homo sapiens; experiment: Selectivity, ratio of EC50 for human P2Y6 receptor to EC50 for human P2Y14 receptor

T1 sequence (Q15077 whole entry): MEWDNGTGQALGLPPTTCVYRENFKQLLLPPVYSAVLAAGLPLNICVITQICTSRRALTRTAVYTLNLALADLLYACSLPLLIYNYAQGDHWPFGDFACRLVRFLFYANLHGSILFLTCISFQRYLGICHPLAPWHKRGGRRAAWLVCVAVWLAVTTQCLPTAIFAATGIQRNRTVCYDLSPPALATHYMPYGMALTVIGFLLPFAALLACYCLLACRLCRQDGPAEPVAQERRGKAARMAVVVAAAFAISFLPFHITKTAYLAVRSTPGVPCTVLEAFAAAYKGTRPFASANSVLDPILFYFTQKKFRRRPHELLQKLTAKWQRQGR

Row | SMILES | EC50 (P2Y purinoceptor 6 [1]; read-out: EC50) | EC50 (P2Y purinoceptor 14; read-out: EC50) | EC50 (P2Y purinoceptor 6 [3]) | other results
1 | O=c1[nH]c(=S)ccn1[C@@H]1O[C@H](COP(=O)(O)OP(=O)(O)O)[C@@H](O)[C@H]1O | 2360 nM | 320 nM | – | –
2 | O=c1ccn([C@@]23C[C@H]2[C@H](COP(=O)(O)OP(=O)(O)O)[C@@H](O)[C@H]3O)c(=O)[nH]1 | 42 nM | – | – | Activity [2]: inactive
3 | N#CCCOP(=O)(O)OP(=O)(O)OC[C@H]1O[C@@H](n2ccc(=O)[nH]c2=O)[C@H](O)[C@@H]1O | – | 7460 nM | > 10 µM | –
4 | O=c1ccn([C@@H]2O[C@H](COP(=O)(O)C(F)(F)P(=O)(O)O)[C@@H](O)[C@H]2O)c(=O)[nH]1 | – | 63 nM | – | EC50 (P2Y purinoceptor 6 [1]; 1321-n1): Not Active
5 | O=c1[nH]c(=O)n([C@@H]2O[C@H](COP(=O)(O)C(F)(F)P(=O)(O)O)[C@@H](O)[C@H]2O)cc1I | 127 nM | 142 nM | – | –
6 | O=c1ccn([C@@H]2O[C@H](COP(=O)(O)OP(=O)(O)Oc3ccccc3)[C@@H](O)[C@H]2O)c(=O)[nH]1 | 7400 nM | 768 nM | – | –
7 | O=c1ccn([C@@H]2O[C@H](COP(=O)(O)OP(=O)(O)O)[C@@H](O)[C@H]2O)c(=S)[nH]1 | 447 nM | 1.92 nM | – | Ratio EC50 (Homo sapiens): 230
8 | CC(C)(C)OP(=O)(O)OP(=O)(O)OC[C@H]1O[C@@H](n2ccc(=O)[nH]c2=S)[C@H](O)[C@@H]1O | 2040 nM | 32 nM | – | Ratio EC50 (Homo sapiens): 64
9 | O=c1ccn([C@@H]2O[C@H](COP(=O)(O)OP(=O)(O)Oc3ccc([N+](=O)[O-])cc3)[C@@H](O)[C@H]2O)c(=O)[nH]1 | 2760 nM | 1490 nM | – | –
10 | O=c1ccn([C@@H]2O[C@H](COP(=O)(O)OP(=O)(O)Oc3cccc(Cl)c3)[C@@H](O)[C@H]2O)c(=O)[nH]1 | 7370 nM | 1800 nM | – | –
11 | CCCOP(=O)(O)OP(=O)(O)OC[C@H]1O[C@@H](n2ccc(=O)[nH]c2=S)[C@H](O)[C@@H]1O | 9100 nM | 40 nM | – | Ratio EC50 (Homo sapiens): 230
12 | COc1ccc(OP(=O)(O)OP(=O)(O)OC[C@H]2O[C@@H](n3ccc(=O)[nH]c3=O)[C@H](O)[C@@H]2O)cc1 | – | 1900 nM | > 10 µM | –
13 | CC(C)(C)OP(=O)(O)OP(=O)(O)OC[C@H]1O[C@@H](n2ccc(=O)[nH]c2=O)[C@H](O)[C@@H]1O | – | 252 nM | – | Ratio EC50 (Homo sapiens): 43
14 | O=c1ccn([C@H]2[C@H](O)[C@H](O)[C@@]3(COP(=O)(O)OP(=O)(O)O)C[C@H]23)c(=O)[nH]1 | – | – | – | Activity [2]: inactive; Activity (P2Y purinoceptor 6 [3]): inactive
15 | O=c1[nH]c(=S)ccn1[C@@H]1O[C@H](COP(=O)(O)OP(=O)(O)O[C@H]2O[C@H](CO)[C@@H](O)[C@H](O)[C@H]2O)[C@@H](O)[C@H]1O | – | 11 nM | > 10 µM | –
16 | O=c1ccn([C@@H]2O[C@H](COP(=O)(O)OP(=O)(O)O)[C@@H](O)[C@H]2O)c(=O)[nH]1 [URIDINE_DIPHOSPHATE] | 530 nM | – | – | –
17 | COP(=O)(O)OP(=O)(O)OC[C@H]1O[C@@H](n2ccc(=O)[nH]c2=O)[C@H](O)[C@@H]1O | – | 2730 nM | > 10 µM | –
18 | O=c1ccn([C@@H]2O[C@H](COP(=O)(O)CP(=O)(O)O)[C@@H](O)[C@H]2O)c(=S)[nH]1 | 1990 nM | 0.92 nM | – | Ratio EC50 (Homo sapiens): 2160
19 | O=c1ccn([C@@H]2O[C@H](COP(=O)(O)OP(=O)(O)OC(CO)CO)[C@@H](O)[C@H]2O)c(=O)[nH]1 | – | 167 nM | > 10 µM | Ratio EC50 (Homo sapiens): 59
20 | CCN(CC)CC.COP(=O)(O)OP(=O)(O)OC[C@H]1O[C@@H](n2ccc(=S)[nH]c2=O)[C@H](O)[C@@H]1O | 10400 nM | – | – | EC50 (P2Y purinoceptor 14; hek293): Not Active
21 | C#CCCOP(=O)(O)OP(=O)(O)OC[C@H]1O[C@@H](n2ccc(=O)[nH]c2=S)[C@H](O)[C@@H]1O | – | 11 nM | > 10 µM | –
22 | COP(=O)(O)OP(=O)(O)OC[C@H]1O[C@@H](n2ccc(=O)[nH]c2=S)[C@H](O)[C@@H]1O | – | 56 nM | > 10 µM | –
23 | O=c1ccn([C@@H]2O[C@H](COP(=O)(O)CP(=O)(O)O)[C@@H](O)[C@H]2O)c(=O)[nH]1 | 339 nM | 11 nM | – | Ratio EC50 (Homo sapiens): 31
24 | O=c1ccn([C@@H]2O[C@H](COP(=O)(O)OP(=O)(O)OC3CCCCC3)[C@@H](O)[C@H]2O)c(=O)[nH]1 | – | 5160 nM | > 10 µM | –
25 | O=c1ccn([C@@H]2O[C@H](COP(=O)(O)OP(=O)(O)OCC(O)CO)[C@@H](O)[C@H]2O)c(=O)[nH]1 (some centres not stated) | – | 1600 nM | > 10 µM | –
26 | CCOP(=O)(O)OP(=O)(O)OC[C@H]1O[C@@H](n2ccc(=O)[nH]c2=S)[C@H](O)[C@@H]1O | – | 39 nM | > 10 µM | Ratio EC50 (Homo sapiens): > 250
27 | C#CCCOP(=O)(O)OP(=O)(O)OC[C@H]1O[C@@H](n2ccc(=O)[nH]c2=O)[C@H](O)[C@@H]1O | 1520 nM | 480 nM | – | –
28 | CO/N=c1/ccn([C@@H]2O[C@H](COP(=O)(O)OP(=O)(O)O)[C@@H](O)[C@H]2O)c(=O)[nH]1 | 70 nM | 3320 nM | – | –
